In patent US20250228239A1, “MOLECULES HAVING PESTICIDAL UTILITY, AND INTERMEDIATES, COMPOSITIONS, AND PROCESSES, RELATED THERETO” (priority 2024, published 2025) one finds pest or weed control and mortality data, which are given here for 20 compounds.

Assay [1] has as its system Beet Armyworm (Spodoptera exigua, LAPHEG). As to the kind of experiment: Bioassays on Beet Armyworm (BAW), 128-well diet tray assay. Type of assay: in vivo. The note with it: Spodoptera exigua. Put shortly: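 Diet-overlay assay: 50 μg/cm^2 compound applied in 90:10 acetone-water to artificial diet, allowed to dry, then infested with 1–5 L2 larvae/well; 8 wells/compound; covered, vented; 25° C., 14:10 L:D, 5–7 d; % mortality per well, averaged.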

For assay [2], the system named is Cabbage Looper (Trichoplusia ni, TRIPNI). The assay is described as follows: Bioassays on Cabbage Looper (CL), 128-well diet tray assay. As to conditions: Trichoplusia ni. Type of assay: in vivo. Summed up: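 Activity is mean percent mortality over eight wells of second-instar larvae exposed to diet treated at 50 μg/cm^2 for 5–7 days at 25° C.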
Where [3] appears, read: Table ABC: Biological Results, species BAW, read-out: BAW.
The mark [4] stands for this setting: Table ABC: Biological Results, species CL, read-out: CL.
Setting [5] is: Beet Armyworm, Table ABC / ABC-DP rating, read-out: BAW rating.
The mark [6] stands for this setting: Cabbage Looper, Table ABC / ABC-DP rating, read-out: CL rating.
[7] abbreviates: Beet Armyworm, rating class, read-out: BAW.
[8] abbreviates: Cabbage Looper, rating class, read-out: CL.

Where two headings read alike, the source gives them in different places.

Take `Nc1cc(F)c(F)cc1NC(=O)c1cc(NC(=O)[C@H]2[C@H](c3ccc(F)c(Cl)c3)C2(Cl)Cl)ccc1Cl` [F1134, N-(2-Amino-4,5-difluorophenyl)-2-chloro-5-((1R,3R)-2,2-dichloro-3-(3-chloro-4-fluorophenyl)cyclopropane-1-carboxamido)benzamide]: the pest or weed control at 50 µg/cm2 in assay [1] (setting [3]) and in assay [2] (setting [4]) was 50 to 100% throughout.
Turning to `Cc1c(Cl)cc(NC(=O)[C@H]2[C@H](c3ccc(F)c(Cl)c3)C2(Cl)Cl)cc1C(=O)Nc1ccc(F)c(N)c1F` (relative stereo) [F1223, trans-N-(3-Amino-2,4-difluorophenyl)-3-chloro-5-(2,2-dichloro-3-(3-chloro-4-fluorophenyl)cyclopropane-1-carboxamido)-2-methylbenzamide], the pest or weed control at 50 µg/cm2 in assay [1] (setting [3]) and in assay [2] (setting [4]) was 50 to 100% throughout.
Consider `O=C(Nc1c(F)ccc(NC(=O)c2cc(NC(=O)[C@H]3[C@H](c4ccc(F)c(C(F)(F)F)c4)C3(Cl)Cl)ccc2Cl)c1F)c1cc(C(F)(F)F)no1` [F1824, N-(3-(2-Chloro-5-((1R,3R)-2,2-dichloro-3-(4-fluoro-3-(trifluoromethyl)phenyl)cyclopropane-1-carboxamido)benzamido)-2,6-difluorophenyl)-3-(trifluoromethyl)isoxazole-5-carboxamide], for which the pest or weed control at 50 µg/cm2 in assay [1] (setting [5]) and in assay [2] (setting [6]) was 50 to 100% throughout.
Consider `COc1c(F)cc(NC(=O)[C@H]2[C@H](c3ccc(F)c(Cl)c3)C2(Cl)Cl)cc1C(=O)Nc1ccc(F)c(N)c1F` (relative stereo) [F1226, trans-N-(3-Amino-2,4-difluorophenyl)-5-(2,2-dichloro-3-(3-chloro-4-fluoro-phenyl)cyclopropane-1-carboxamido)-3-fluoro-2-methoxybenzamide], for which the pest or weed control at 50 µg/cm2 in assay [1] (setting [3]) and in assay [2] (setting [4]) was 50 to 100% in each case.
Take `O=C(Nc1cc(NC(=O)C(F)(F)F)c(F)cc1F)c1cc(NC(=O)[C@H]2[C@H](c3ccc(Cl)c(Cl)c3)C2(Cl)Cl)cc(F)c1Cl` [F1403, 2-Chloro-5-((1R,3R)-2,2-dichloro-3-(3,4-dichlorophenyl)cyclopropane-1-carboxamido)-N-(2,4-difluoro-5-(2,2,2-trifluoroacetamido)phenyl)-3-fluorobenzamide]: the pest or weed control at 50 µg/cm2 in assay [1] (setting [7]) and in assay [2] (setting [8]) was 50 to 100% in each case.
As to `CC(C)(C)OC(=O)N(C(=O)OC(C)(C)C)c1c(F)ccc(NC(=O)c2cc(NC(=O)[C@H]3[C@H](c4ccc(F)c(Cl)c4)C3(Cl)Cl)cc(F)c2F)c1F` (relative stereo) [F1211, trans-tert-Butyl-N-tert-butoxycarbonyl-N-[3-[[5-[[2,2-dichloro-3-(3-chloro-4-fluorophenyl)cyclopropanecarbonyl]amino]-2,3-difluorobenzoyl]amino]-2,6-difluorophenyl]carbamate], the pest or weed control at 50 µg/cm2 in assay [1] (setting [3]) and in assay [2] (setting [4]) was 50 to 100% each time.
In the case of `O=C(Nc1cc(NC(=O)C(F)(F)F)c(F)cc1F)c1cc(NC(=O)[C@H]2[C@H](c3ccc(F)c(Cl)c3)C2(Cl)Cl)cc(F)c1Cl` [F1401, 2-Chloro-5-((1R,3R)-2,2-dichloro-3-(3-chloro-4-fluorophenyl)cyclopropane-1-carboxamido)-N-(2,4-difluoro-5-(2,2,2-trifluoroacetamido)phenyl)-3-fluorobenzamide], the pest or weed control at 50 µg/cm2 in assay [1] (setting [7]) and in assay [2] (setting [8]) was 50 to 100% throughout.
Turning to `O=C(Nc1ccc(F)cc1NC(=O)C(F)F)c1cc(NC(=O)[C@H]2[C@H](c3ccc(Cl)c(Cl)c3)C2(Cl)Cl)ccc1Cl` (relative stereo) [F1123, trans-2-Chloro-5-(2,2-dichloro-3-(3,4-dichlorophenyl)cyclopropane-1-carboxamido)-N-(2-(2,2-difluoroacetamido)-4-fluorophenyl)benzamide], the pest or weed control at 50 µg/cm2 in assay [1] (setting [3]) and in assay [2] (setting [4]) was 50 to 100% each time.
For `Cc1cc(NC(=O)[C@H]2[C@H](c3ccc(Cl)c(Cl)c3)C2(Cl)Cl)cc(C(=O)Nc2ccc(F)c(NC(=O)C(F)F)c2F)c1Cl` [F1484, 2-Chloro-5-((1R,3R)-2,2-dichloro-3-(3,4-dichlorophenyl)cyclopropane-1-carboxamido)-N-(3-(2,2-difluoroacetamido)-2,4-difluorophenyl)-3-methylbenzamide], the pest or weed control at 50 µg/cm2 in assay [1] (setting [7]) and in assay [2] (setting [8]) was 50 to 100% in each case.
Take `Cc1cc(NC(=O)[C@H]2[C@H](c3ccc(Cl)c(Cl)c3)C2(Cl)Cl)cc(C(=O)Nc2ccc(F)c(N)c2F)c1Cl` [F1446, N-(3-Amino-2,4-difluorophenyl)-2-chloro-5-((1R,3R)-2,2-dichloro-3-(3,4-dichlorophenyl)cyclopropane-1-carboxamido)-3-methylbenzamide]: the pest or weed control at 50 µg/cm2 in assay [1] (setting [7]) and in assay [2] (setting [8]) was 50 to 100% throughout.
For the compound `O=C(Nc1cc(NC(=O)C(F)(F)C(F)F)c(F)cc1F)c1cc(NC(=O)[C@H]2[C@H](c3cc(Cl)c(Cl)c(Cl)c3)C2(Cl)Cl)ccc1Cl` [F1568, 2-Chloro-5-((1R,3R)-2,2-dichloro-3-(3,4,5-trichlorophenyl)cyclopropane-1-carboxamido)-N-(2,4-difluoro-5-(2,2,3,3-tetrafluoropropanamido)phenyl)benzamide], the pest or weed control at 50 µg/cm2 in assay [1] (setting [7]) and in assay [2] (setting [8]) was 50 to 100% throughout.
Turning to `CCOC(C)C(=O)N(C)c1c(F)ccc(NC(=O)c2cc(NC(=O)[C@H]3[C@H](c4ccc(Cl)c(Cl)c4)C3(Cl)Cl)ccc2Cl)c1F` (stereo partly drawn) [F1616, 2-Chloro-5-((1R,3R)-2,2-dichloro-3-(3,4-dichlorophenyl)cyclopropane-1-carboxamido)-N-(3-(2-ethoxy-N-methylpropanamido)-2,4-difluorophenyl)benzamide], the pest or weed control at 50 µg/cm2 in assay [1] (setting [7]) and in assay [2] (setting [8]) was 50 to 100% throughout.
Regarding `Nc1c(F)cccc1NC(=O)c1cc(NC(=O)[C@H]2[C@H](c3ccc(F)c(Cl)c3)C2(Cl)Cl)ccc1Cl` [F1133, N-(2-Amino-3-fluorophenyl)-2-chloro-5-((1R,3R)-2,2-dichloro-3-(3-chloro-4-fluorophenyl)cyclopropane-1-carboxamido)benzamide], the pest or weed control at 50 µg/cm2 in assay [1] (setting [3]) and in assay [2] (setting [4]) was 50 to 100% each time.
In the case of `CC(=O)Nc1c(F)ccc(NC(=O)c2cc(NC(=O)[C@H]3[C@H](c4ccc(Cl)c(Cl)c4)C3(Cl)Cl)ccc2F)c1F` [F1493, N-(3-Acetamido-2,4-difluorophenyl)-5-((1R,3R)-2,2-dichloro-3-(3,4-dichlorophenyl)cyclopropane-1-carboxamido)-2-fluorobenzamide], the pest or weed control at 50 µg/cm2 in assay [1] (setting [7]) and in assay [2] (setting [8]) was 50 to 100% each time.
As for `Cc1cc(NCCc2ccccc2)ccc1NC(=O)c1cc(NC(=O)[C@H]2[C@H](c3cc(Cl)cc(Cl)c3)C2(Cl)Cl)ccc1Cl` (relative stereo) [F1177, trans-2-Chloro-5-(2,2-dichloro-3-(3,5-dichlorophenyl)cyclopropane-1-carboxamido)-N-(2-methyl-4-(phenethylamino)phenyl)benzamide], the pest or weed control at 50 µg/cm2 in assay [1] (setting [3]) and in assay [2] (setting [4]) was 50 to 100% each time.
In the case of `O=C(Nc1ccc(F)c(NC(=O)C2CCO2)c1F)c1cc(NC(=O)[C@H]2[C@H](c3ccc(F)c(C(F)(F)F)c3)C2(Cl)Cl)ccc1Cl` (stereo partly drawn) [F1503, N-(3-(2-Chloro-5-((1R,3R)-2,2-dichloro-3-(4-fluoro-3-(trifluoromethyl)phenyl)cyclopropane-1-carboxamido)benzamido)-2,6-difluorophenyl)oxetane-2-carboxamide], the pest or weed control at 50 µg/cm2 in assay [1] (setting [7]) and in assay [2] (setting [8]) was 50 to 100% throughout.
Regarding `Nc1cc(F)c(NC(=O)c2cc(NC(=O)[C@H]3[C@H](c4cc(Cl)cc(Cl)c4)C3(Cl)Cl)ccc2Cl)c(F)c1` [F1027, N-(4-Amino-2,6-difluorophenyl)-2-chloro-5-((1R,3R)-2,2-dichloro-3-(3,5-dichlorophenyl)cyclopropane-1-carboxamido)benzamide], the pest or weed control at 50 µg/cm2 in assay [1] (setting [3]) and in assay [2] (setting [4]) was 50 to 100% throughout.
For the compound `C#CCCC(=O)Nc1c(F)ccc(NC(=O)c2cc(NC(=O)[C@H]3[C@H](c4ccc(F)c(C(F)(F)F)c4)C3(Cl)Cl)ccc2Cl)c1F` [F1855], the pest or weed control at 50 µg/cm2 in assay [1] (setting [5]) and in assay [2] (setting [6]) was 50 to 100% each time.
`O=C(Nc1c(F)ccc(NC(=O)C(F)(F)F)c1F)c1cc(NC(=O)[C@H]2[C@H](c3ccc(F)c(C(F)(F)F)c3)C2(Cl)Cl)cc(F)c1F` [F1574, 5-((1R,3R)-2,2-Dichloro-3-(4-fluoro-3-(trifluoromethyl)phenyl)cyclopropane-1-carboxamido)-N-(2,6-difluoro-3-(2,2,2-trifluoroacetamido)phenyl)-2,3-difluorobenzamide]: the pest or weed control at 50 µg/cm2 in assay [1] (setting [7]) and in assay [2] (setting [8]) was 50 to 100% in each case.
With `Nc1c(F)cc(NC(=O)c2cc(NC(=O)[C@H]3[C@H](c4ccc(Cl)c(Cl)c4)C3(Cl)Cl)ccc2Cl)cc1F` (relative stereo) [DP3, trans-N-(4-Amino-3,5-difluorophenyl)-2-chloro-5-(2,2-dichloro-3-(3,4-dichlorophenyl)cyclopropane-1-carboxamido)benzamide], the mortality at 50 µg/cm2 in assay [1] (168 h, second instar larvae, 50 μg/cm^2 of test molecule on artificial diet, 25° C., five to seven days, average of eight wells, read-out: BAW % Control (or Mortality) rating) was in the range of 50 to 100%; in assay [2] (168 h, second instar larvae, 50 μg/cm^2 of test molecule on artificial diet, 25° C., five to seven days, average of eight wells, read-out: CL % Control (or Mortality) rating), 50 to 100%. Further, the pest or weed control at 50 µg/cm2 in assay [1] (setting [5]) and in assay [2] (setting [6]) was 50 to 100% in each case.
